Experimental data as given in patent US6344464B1, “Use of tetrahydropyridine derivatives to prepare medicines for treating diseases causing demyelination” (Sanofi-Synthelabo, priority 1997, dated 2002).
Where a name gives a salt, the structure may show the parent alone.

Assays:
[1] = test system: experimental allergic encephalitis (EAE); experiment: experimental allergic encephalitis (EAE) model induced by intraplantar myelin basic protein (fragment 68-84) in Freund's complete adjuvant; assay type: in vivo; details: EAE in Lewis rats, administered orally from day zero of induction
Excerpt: The activity of the compounds of formula (I) was investigated in the model of experimental allergic encephalitis (EAE) induced in Lewis rats by the intraplantar administration of myelin basic protein (MBP) (fragment 68-84) in a Freund's complete adjuvant (FCA) enriched in Mycobacterium tuberculosis, according to the protocol published by Martin and Near (Journal of Neuroimmunology, 1995, 241-245).
EAE is an inflammatory autoimmune disease of the central nervous system which presents demyelinating lesions reminiscent of human multiple sclerosis.

melting point [°C] | Structure (SMILES) | severity of the disease (paralysis of the back paws) [1] | weight loss of the treated animals ([1]; compared with animals treated with the vehicle only)
140 to 143 | CCCCCc1ccc(CCN2CC=C(c3cccc(C(F)(F)F)c3)CC2)cc1C (as salt: oxalate) | – | –
– | Cl.FC(F)(F)c1cccc(C2=CCN(CCc3ccc4ccccc4c3)CC2)c1 [1-(2-naphth-2-ylethyl)-4-(3-trifluoromethylphenyl)-1,2,3,6-tetrahydropyridine hydrochloride] | statistically less severe | significantly lower
207 to 210 | FC(F)(F)c1cccc(C2=CCN(CC(c3ccccc3)c3ccccc3)CC2)c1 (as salt: hydrochloride) | – | –
